Assay results from the NIST ThermoML archive (doi:10.1016/j.jct.2004.04.003).
Where “and” joins values, the source holds several entries; their conditions need not be identical. Identical values can stand only once.

Legend:
[1] = Molar enthalpy of transition or fusion; conditions: Adiabatic calorimetry
[2] = for vapor or sublimation pressure: Twin ebulliometer; for Triple point temperature: Adiabatic calorimetry
[3] = molar heat capacity at saturation pressure

C1CCC(C2CCCC2)C1 [1,1'-bicyclopentyl]
Conditions	Molar enthalpy of transition or fusion, Crystal 1 [kcal/mol]	Molar enthalpy of transition or fusion, Crystal 2 [kcal/mol]	Triple point temperature, Crystal 1 [K]	Triple point temperature, Crystal 2 [K]	Triple point temperature, Crystal 3 [K]
[1]	3.202	0.06142	–	–	–
[2]	–	–	237.82	171.5	128.4

Conditions	Critical temperature [K]	mass density [kg/m3]	molar heat capacity	vapor or sublimation pressure [kPa]
[2], 384 K, Liquid	–	–	–	9.59
[2], 387.47 K, Liquid	–	–	–	10.89
[2], 390.95 K, Liquid	–	–	–	12.35
[2], 394.45 K, Liquid	–	–	–	13.96
[2], 397.96 K, Liquid	–	–	–	15.75
[2], 401.49 K, Liquid	–	–	–	17.74
[2], 405.02 K, Liquid	–	–	–	19.93
[2], 405.03 K, Liquid	–	–	–	19.93
[2], 412.15 K, Liquid	–	–	–	25.02
[2], 419.33 K, Liquid	–	–	–	31.18
[2], 426.57 K, Liquid	–	–	–	38.56
[2], 433.87 K, Liquid	–	–	–	47.38
[2], 441.22 K, Liquid	–	–	–	57.82
[2], 448.61 K, Liquid	–	–	–	70.12
[2], 456.08 K, Liquid	–	–	–	84.53
[2], 463.61 K, Liquid	–	–	–	101.33
[2], 471.19 K, Liquid	–	–	–	120.79
[2], 478.83 K, Liquid	–	–	–	143.25
[2], 486.53 K, Liquid	–	–	–	169.02
[2], 494.28 K, Liquid	–	–	–	198.49
[2], 502.09 K, Liquid	–	–	–	232.02
[2], 509.97 K, Liquid	–	–	–	270.02
[2], 662.5 K, Gas	–	114.4	–	–
[2], 682.8 K, Gas	–	171.2	–	–
[2], 685.1 K, Liquid	–	366	–	–
[2], 687.3 K, Liquid	–	347.2	–	–
[2], 689.6 K, Liquid	–	311	–	–
[2], 689.8 K, Gas	–	244.4	–	–
[2], Liquid, DTA	690	–	–	–
[3], 10 K, Crystal 3, Vacuum adiabatic calorimetry	–	–	2.73 J/K/mol	–
[3], 11.5 K, Crystal 3, Vacuum adiabatic calorimetry	–	–	4.08 J/K/mol	–
[3], 11.8 K, Crystal 3, Vacuum adiabatic calorimetry	–	–	4.35 J/K/mol	–
[3], 13.17 K, Crystal 3, Vacuum adiabatic calorimetry	–	–	5.8 J/K/mol	–
[3], 13.37 K, Crystal 3, Vacuum adiabatic calorimetry	–	–	6.03 J/K/mol	–
[3], 14.83 K, Crystal 3, Vacuum adiabatic calorimetry	–	–	7.75 J/K/mol	–
[3], 14.99 K, Crystal 3, Vacuum adiabatic calorimetry	–	–	7.95 J/K/mol	–
[3], 16.64 K, Crystal 3, Vacuum adiabatic calorimetry	–	–	10.09 J/K/mol	–
[3], 16.69 K, Crystal 3, Vacuum adiabatic calorimetry	–	–	10.19 J/K/mol	–
[3], 18.46 K, Crystal 3, Vacuum adiabatic calorimetry	–	–	12.62 J/K/mol	–
[3], 18.63 K, Crystal 3, Vacuum adiabatic calorimetry	–	–	12.87 J/K/mol	–
[3], 20 K, Crystal 3, Vacuum adiabatic calorimetry	–	–	14.82 J/K/mol	–
[3], 20.51 K, Crystal 3, Vacuum adiabatic calorimetry	–	–	15.56 J/K/mol	–
[3], 20.71 K, Crystal 3, Vacuum adiabatic calorimetry	–	–	15.86 J/K/mol	–
[3], 22.72 K, Crystal 3, Vacuum adiabatic calorimetry	–	–	18.82 J/K/mol	–
[3], 22.99 K, Crystal 3, Vacuum adiabatic calorimetry	–	–	19.31 J/K/mol	–
[3], 25.1 K, Crystal 3, Vacuum adiabatic calorimetry	–	–	22.6 J/K/mol	–
[3], 25.32 K, Crystal 3, Vacuum adiabatic calorimetry	–	–	22.88 J/K/mol	–
[3], 27.67 K, Crystal 3, Vacuum adiabatic calorimetry	–	–	26.42 J/K/mol	–
[3], 30 K, Crystal 3, Vacuum adiabatic calorimetry	–	–	29.89 J/K/mol	–
[3], 30.51 K, Crystal 3, Vacuum adiabatic calorimetry	–	–	30.65 J/K/mol	–
[3], 33.62 K, Crystal 3, Vacuum adiabatic calorimetry	–	–	35.24 J/K/mol	–
[3], 37.09 K, Crystal 3, Vacuum adiabatic calorimetry	–	–	40.13 J/K/mol	–
[3], 40 K, Crystal 3, Vacuum adiabatic calorimetry	–	–	44.07 J/K/mol	–
[3], 40.84 K, Crystal 3, Vacuum adiabatic calorimetry	–	–	45.17 J/K/mol	–
[3], 44.81 K, Crystal 3, Vacuum adiabatic calorimetry	–	–	49.8 J/K/mol	–
[3], 49.26 K, Crystal 3, Vacuum adiabatic calorimetry	–	–	55.04 J/K/mol	–
[3], 50 K, Crystal 3, Vacuum adiabatic calorimetry	–	–	55.91 J/K/mol	–
[3], 54.23 K, Crystal 3, Vacuum adiabatic calorimetry	–	–	60.6 J/K/mol	–
[3], 54.24 K, Crystal 3, Vacuum adiabatic calorimetry	–	–	60.62 J/K/mol	–
[3], 59.45 K, Crystal 3, Vacuum adiabatic calorimetry	–	–	65.6 J/K/mol	–
[3], 60 K, Crystal 3, Vacuum adiabatic calorimetry	–	–	66.15 J/K/mol	–
[3], 65.02 K, Crystal 3, Vacuum adiabatic calorimetry	–	–	70.77 J/K/mol	–
[3], 70 K, Crystal 3, Vacuum adiabatic calorimetry	–	–	74.88 J/K/mol	–
[3], 71.12 K, Crystal 3, Vacuum adiabatic calorimetry	–	–	75.75 J/K/mol	–
[3], 77.81 K, Crystal 3, Vacuum adiabatic calorimetry	–	–	80.69 J/K/mol	–
[3], 80 K, Crystal 3, Vacuum adiabatic calorimetry	–	–	82.21 J/K/mol	–
[3], 84.9 K, Crystal 3, Vacuum adiabatic calorimetry	–	–	85.44 J/K/mol	–
[3], 90 K, Crystal 3, Vacuum adiabatic calorimetry	–	–	88.7 J/K/mol	–
[3], 90.4 K, Crystal 3, Vacuum adiabatic calorimetry	–	–	88.97 J/K/mol	–
[3], 92.15 K, Crystal 3, Vacuum adiabatic calorimetry	–	–	90 J/K/mol	–
[3], 95.17 K, Crystal 3, Vacuum adiabatic calorimetry	–	–	91.72 J/K/mol	–
[3], 97.64 K, Crystal 3, Vacuum adiabatic calorimetry	–	–	93.21 J/K/mol	–
[3], 100 K, Crystal 3, Vacuum adiabatic calorimetry	–	–	94.56 J/K/mol	–
[3], 102.4 K, Crystal 3, Vacuum adiabatic calorimetry	–	–	95.85 J/K/mol	–
[3], 105.1 K, Crystal 3, Vacuum adiabatic calorimetry	–	–	97.46 J/K/mol	–
[3], 110 K, Crystal 3, Vacuum adiabatic calorimetry	–	–	100.28 J/K/mol	–
[3], 112.84 K, Crystal 3, Vacuum adiabatic calorimetry	–	–	102.05 J/K/mol	–
[3], 116.54 K, Crystal 3, Vacuum adiabatic calorimetry	–	–	104.26 J/K/mol	–
[3], 118.13 K, Crystal 3, Vacuum adiabatic calorimetry	–	–	105.18 J/K/mol	–
[3], 118.17 K, Crystal 3, Vacuum adiabatic calorimetry	–	–	105.56 J/K/mol	–
[3], 120 K, Crystal 3, Vacuum adiabatic calorimetry	–	–	106.6 J/K/mol	–
[3], 120.99 K, Crystal 3, Vacuum adiabatic calorimetry	–	–	107.39 J/K/mol	–
[3], 126.75 K, Crystal 3, Vacuum adiabatic calorimetry	–	–	111.08 J/K/mol	–
[3], 128.4 K, Crystal 1, Vacuum adiabatic calorimetry	–	–	115.78 J/K/mol	–
[3], 128.4 K, Crystal 3, Vacuum adiabatic calorimetry	–	–	112.23 J/K/mol	–
[3], 130 K, Crystal 1, Vacuum adiabatic calorimetry	–	–	116.49 J/K/mol	–
[3], 133.46 K, Crystal 2, Vacuum adiabatic calorimetry	–	–	118.05 J/K/mol	–
[3], 133.78 K, Crystal 2, Vacuum adiabatic calorimetry	–	–	118.67 J/K/mol	–
[3], 134.12 K, Crystal 2, Vacuum adiabatic calorimetry	–	–	118.41 J/K/mol	–
[3], 135.2 K, Crystal 2, Vacuum adiabatic calorimetry	–	–	118.41 J/K/mol	–
[3], 139.41 K, Crystal 2, Vacuum adiabatic calorimetry	–	–	121.01 J/K/mol	–
[3], 140 K, Crystal 1, Vacuum adiabatic calorimetry	–	–	121.32 J/K/mol	–
[3], 142.47 K, Crystal 2, Vacuum adiabatic calorimetry	–	–	122.75 J/K/mol	–
[3], 143.12 K, Crystal 2, Vacuum adiabatic calorimetry	–	–	122.93 J/K/mol	–
[3], 150 K, Crystal 1, Vacuum adiabatic calorimetry	–	–	126.87 J/K/mol	–
[3], 151.25 K, Crystal 2, Vacuum adiabatic calorimetry	–	–	127.64 J/K/mol	–
[3], 152.11 K, Crystal 2, Vacuum adiabatic calorimetry	–	–	128.17 J/K/mol	–
[3], 160 K, Crystal 1, Vacuum adiabatic calorimetry	–	–	133.12 J/K/mol	–
[3], 160.68 K, Crystal 2, Vacuum adiabatic calorimetry	–	–	133.74 J/K/mol	–
[3], 160.78 K, Crystal 2, Vacuum adiabatic calorimetry	–	–	133.46 J/K/mol	–
[3], 166.89 K, Crystal 2, Vacuum adiabatic calorimetry	–	–	138.79 J/K/mol	–
[3], 170 K, Crystal 1, Vacuum adiabatic calorimetry	–	–	140.08 J/K/mol	–
[3], 171.5 K, Crystal 1, Vacuum adiabatic calorimetry	–	–	141.19 J/K/mol and 136.32 J/K/mol	–
[3], 173.81 K, Crystal 1, Vacuum adiabatic calorimetry	–	–	137.58 J/K/mol	–
[3], 178.13 K, Crystal 1, Vacuum adiabatic calorimetry	–	–	139.77 J/K/mol	–
[3], 180 K, Crystal 1, Vacuum adiabatic calorimetry	–	–	141.36 J/K/mol	–
[3], 181.67 K, Crystal 1, Vacuum adiabatic calorimetry	–	–	142.75 J/K/mol	–
[3], 182.42 K, Crystal 1, Vacuum adiabatic calorimetry	–	–	143.41 J/K/mol	–
[3], 186.12 K, Crystal 1, Vacuum adiabatic calorimetry	–	–	145.42 J/K/mol	–
[3], 190 K, Crystal 1, Vacuum adiabatic calorimetry	–	–	148.08 J/K/mol	–
[3], 190.41 K, Crystal 1, Vacuum adiabatic calorimetry	–	–	148.06 J/K/mol	–
[3], 194.17 K, Crystal 1, Vacuum adiabatic calorimetry	–	–	151.17 J/K/mol	–
[3], 200 K, Crystal 1, Vacuum adiabatic calorimetry	–	–	155.66 J/K/mol	–
[3], 202.37 K, Crystal 1, Vacuum adiabatic calorimetry	–	–	157.69 J/K/mol	–
[3], 210 K, Crystal 1, Vacuum adiabatic calorimetry	–	–	164.11 J/K/mol	–
[3], 210.53 K, Crystal 1, Vacuum adiabatic calorimetry	–	–	164.59 J/K/mol	–
[3], 215.22 K, Crystal 1, Vacuum adiabatic calorimetry	–	–	168.8 J/K/mol	–
[3], 218.83 K, Crystal 1, Vacuum adiabatic calorimetry	–	–	172.67 J/K/mol	–
[3], 220 K, Crystal 1, Vacuum adiabatic calorimetry	–	–	173.41 J/K/mol	–
[3], 223.28 K, Crystal 1, Vacuum adiabatic calorimetry	–	–	177.54 J/K/mol	–
[3], 230 K, Crystal 1, Vacuum adiabatic calorimetry	–	–	183.54 J/K/mol	–
[3], 230.93 K, Crystal 1, Vacuum adiabatic calorimetry	–	–	187.18 J/K/mol	–
[3], 237.82 K, Crystal 1, Vacuum adiabatic calorimetry	–	–	192.05 J/K/mol	–
[3], 420 K, Liquid	–	–	312.05 J/K/mol	–
[3], 440 K, Liquid	–	–	324.49 J/K/mol	–
[3], 460 K, Liquid	–	–	336.88 J/K/mol	–
[3], 480 K, Liquid	–	–	349.1 J/K/mol	–
[3], 500 K, Liquid	–	–	361.07 J/K/mol	–
[3], 520 K, Liquid	–	–	372.68 J/K/mol	–
[3], 540 K, Liquid	–	–	383.83 J/K/mol	–
[3], 560 K, Liquid	–	–	394.48 J/K/mol	–
[3], 580 K, Liquid	–	–	404.71 J/K/mol	–
[3], 600 K, Liquid	–	–	414.76 J/K/mol	–

[3], Liquid, Vacuum adiabatic calorimetry
Conditions	molar heat capacity [J/K/mol]
235.7 K	209.39
237.82 K	210.18
240 K	211.02
242.86 K	212.18
250 K	215.09
251.35 K	215.65
251.38 K	215.6
260 K	219.43
260.38 K	219.61
260.4 K	219.59
269.99 K	224.12
270 K	224.11
279.85 K	228.87
280 K	228.97
289.97 K	234.24
290 K	234.26
298.15 K	238.69
300 K	239.71
300.32 K	239.88
303.62 K	241.76
312.36 K	246.68
320 K	251.11
321.76 K	252.14
331.4 K	257.76
340 K	262.83
340.79 K	263.29
350.44 K	269.11
360 K	274.85
360.31 K	275.02
369.98 K	281.03
379.48 K	286.87
380 K	287.22
388.81 K	292.97
400 K	299.69
